From PubChem BioAssay AID1745844 (Carcinogenic Potency Database (CPDB), 2022)
Where “and” joins values, the source holds several entries; their conditions need not be identical. Equal entries are not always repeated. Calls of active or inactive are those of the source. No rule for the calls is given here.

Test system: rodent lifetime carcinogenesis bioassay, tumor incidence TD50
Test: chronic cancer bioassays in animals – CPDB, compiled studies (AID 1745844)
[1] = mouse, strain B6C3F1, males, by gavage, site: any site (literature study), lesion: several types, types named in the paper, dosed 103 weeks, study length 104 weeks

O=C1C(c2[nH]c3ccc(S(=O)(=O)O)cc3c2O)=Nc2ccc(S(=O)(=O)O)cc21
carcinogen call (mouse, strain Charles River CD1, females, in feed, site: liver, lesion: nodular hyperplasia, dosed 84 weeks, study length 84 weeks): negative (inactive) | carcinogen call (mouse, strain Charles River CD1, females, in feed, site: lung, lesion: adenoma, dosed 84 weeks, study length 84 weeks): negative (inactive) | TD50 (mouse, strain Charles River CD1, males, in feed, site: liver, lesion: nodular hyperplasia, dosed 84 weeks, study length 84 weeks): 20200 mg/kg/day (inactive) | carcinogen call (mouse, strain Charles River CD1, males, in feed, site: lung, lesion: adenoma, dosed 84 weeks, study length 84 weeks): negative (inactive) | TD50 (mouse, strain Charles River CD (Sprague-Dawley), females, in feed, site: any site (literature study), lesion: malignant tumor, dosed 100 weeks, study length 100 weeks): 33900 mg/kg/day (inactive) | carcinogen call (mouse, strain Charles River CD (Sprague-Dawley), females, in feed, site: any site (literature study), lesion: several types, types named in the paper, dosed 100 weeks, study length 100 weeks): negative (inactive) | TD50 (mouse, strain Charles River CD (Sprague-Dawley), males, in feed, site: any site (literature study), lesion: malignant tumor, dosed 95 weeks, study length 95 weeks): 57100 mg/kg/day (inactive) | TD50 (mouse, strain Charles River CD (Sprague-Dawley), males, in feed, site: any site (literature study), lesion: several types, types named in the paper, dosed 95 weeks, study length 95 weeks): 23400 mg/kg/day (inactive) | TD50 (rat, strain Osborne-Mendel, both sexes, in feed, site: any site (literature study), lesion: several types, types named in the paper, dosed 104 weeks, study length 104 weeks): 5430 mg/kg/day (inactive)

C=C/C1=C/C(C)C(C)(OC(C)=O)C(=O)OCC2=CC[N+]3(C)CCC(OC1=O)C23O (stereo not drawn)
TD50 (rat, strain ACI, both sexes, in drinking water, site: liver, lesion: hemangioendothelial sarcoma, dosed 48 weeks, study length 68 weeks): 3.01 mg/kg/day | TD50 (rat, strain ACI, both sexes, in drinking water, site: liver, lesion: neoplastic nodule, dosed 48 weeks, study length 68 weeks): 0.697 mg/kg/day | TD50 (rat, strain ACI, both sexes, in drinking water, site: liver, lesion: several types, types named in the paper, dosed 48 weeks, study length 68 weeks): 0.5 mg/kg/day

CC(=O)Nc1ccc(CC(=O)O)cc1
carcinogen call (mouse, strain B6C3F1, females, in feed, site: liver, lesion: hepatocellular adenoma, dosed 78 weeks, study length 78 weeks): negative (inactive) | carcinogen call (mouse, strain B6C3F1, females, in feed, site: liver, lesion: hepatocellular carcinoma, dosed 78 weeks, study length 78 weeks): negative (inactive) | carcinogen call (mouse, strain B6C3F1, females, in feed, site: lung, lesion: several types, types named in the paper, dosed 78 weeks, study length 78 weeks): negative (inactive) | carcinogen call (mouse, strain B6C3F1, males, in feed, site: liver, lesion: hepatocellular adenoma, dosed 78 weeks, study length 78 weeks): negative (inactive) | TD50 (mouse, strain B6C3F1, males, in feed, site: lung, lesion: alveolar/bronchiolar adenoma, dosed 78 weeks, study length 78 weeks): 27700 mg/kg/day (inactive) | TD50 (mouse, strain B6C3F1, males, in feed, site: lung, lesion: alveolar/bronchiolar carcinoma, dosed 78 weeks, study length 78 weeks): 56100 mg/kg/day (inactive) | carcinogen call (rat, strain Fischer 344, females, in feed, site: liver, lesion: several types, types named in the paper, dosed 104 weeks, study length 104 weeks): negative (inactive) | carcinogen call (rat, strain Fischer 344, males, in feed, site: liver, lesion: hepatocellular adenoma, dosed 104 weeks, study length 104 weeks): negative (inactive) | carcinogen call (rat, strain Fischer 344, males, in feed, site: liver, lesion: hepatocellular carcinoma, dosed 104 weeks, study length 104 weeks): negative (inactive)

CCCCCCCCCCCCN(C)N=O
TD50 (rat, strain Fischer 344, females, by gavage, site: lung, lesion: one or several types, types not named, dosed 30 weeks, study length 65 weeks): 1.32 mg/kg/day | TD50 (rat, strain Fischer 344, females, by gavage, site: urinary bladder, lesion: one or several types, types not named, dosed 30 weeks, study length 65 weeks): 0.656 mg/kg/day | TD50 (rat, strain Fischer 344, males, by gavage, site: all sites, lesion: leukemia, dosed 30 weeks, study length 112 weeks): 0.97 mg/kg/day | carcinogen call (rat, strain Fischer 344, males, by gavage, site: any site (literature study), lesion: several types, types named in the paper, dosed 30 weeks, study length 112 weeks): positive | TD50 (rat, strain Fischer 344, males, by gavage, site: forestomach, lesion: carcinoma, dosed 30 weeks, study length 112 weeks): 5.07 mg/kg/day | TD50 (rat, strain Fischer 344, males, by gavage, site: forestomach, lesion: papilloma, dosed 30 weeks, study length 112 weeks): 13.9 mg/kg/day | TD50 (rat, strain Fischer 344, males, by gavage, site: liver, lesion: hepatocellular carcinoma, dosed 30 weeks, study length 112 weeks): 8.98 mg/kg/day | TD50 (rat, strain Fischer 344, males, by gavage, site: lung, lesion: adenocarcinoma, dosed 30 weeks, study length 112 weeks): 6.54 mg/kg/day | TD50 (rat, strain Fischer 344, males, by gavage, site: lung, lesion: adenoma, dosed 30 weeks, study length 112 weeks): 28.5 mg/kg/day | TD50 (rat, strain Fischer 344, males, by gavage, site: pancreatic islets, lesion: islet-cell carcinoma, dosed 30 weeks, study length 112 weeks): 2.75 mg/kg/day | carcinogen call (rat, strain Fischer 344, males, by gavage, site: urinary bladder, lesion: transitional-cell carcinoma, dosed 28 weeks, study length 66 weeks): positive | TD50 (rat, strain Fischer 344, males, by gavage, site: urinary bladder, lesion: transitional-cell carcinoma, dosed 30 weeks, study length 112 weeks): 0.487 mg/kg/day

CCCCCl
carcinogen call (mouse, strain B6C3F1, females, by gavage, site: any site (literature study), lesion: several types, types named in the paper, dosed 103 weeks, study length 104 weeks): negative (inactive) | TD50 (mouse, strain B6C3F1, females, by gavage, site: liver, lesion: hepatocellular adenoma + hepatocellular carcinoma + neoplastic nodule, dosed 103 weeks, study length 105 weeks): 1380 mg/kg/day | TD50 (mouse, strain B6C3F1, females, by gavage, site: lung, lesion: alveolar/bronchiolar adenoma + alveolar/bronchiolar carcinoma, dosed 103 weeks, study length 104 weeks): 13100 mg/kg/day | TD50 (mouse, strain B6C3F1, females, by gavage, site: lung, lesion: alveolar/bronchiolar adenoma + alveolar/bronchiolar carcinoma, dosed 103 weeks, study length 105 weeks): 1160 mg/kg/day | TD50 (mouse, strain B6C3F1, females, by gavage, site: lung, lesion: alveolar/bronchiolar carcinoma, dosed 103 weeks, study length 105 weeks): 1710 mg/kg/day (inactive) | TD50 [1]: 423 mg/kg/day | carcinogen call [1]: negative (inactive) | TD50 (mouse, strain B6C3F1, males, by gavage, site: bone marrow + kidney/pelvis + liver + multiple organs + omentum + spleen + thorax, lesion: hemangiosarcoma, dosed 103 weeks, study length 104 weeks): 2830 mg/kg/day | TD50 (mouse, strain B6C3F1, males, by gavage, site: liver, lesion: hepatocellular adenoma + hepatocellular carcinoma + neoplastic nodule, dosed 103 weeks, study length 104 weeks): 808 mg/kg/day and 623 mg/kg/day | TD50 (mouse, strain B6C3F1, males, by gavage, site: liver, lesion: hepatocellular adenoma + hepatocellular carcinoma, dosed 103 weeks, study length 104 weeks): 808 mg/kg/day (inactive) | TD50 (mouse, strain B6C3F1, males, by gavage, site: lung, lesion: alveolar/bronchiolar adenoma + alveolar/bronchiolar carcinoma, dosed 103 weeks, study length 104 weeks): 3190 mg/kg/day | TD50 (rat, strain Fischer 344, females, by gavage, site: any site (literature study), lesion: several types, types named in the paper, dosed 103 weeks, study length 105 weeks): 100 mg/kg/day (inactive) | TD50 (rat, strain Fischer 344, females, by gavage, site: liver, lesion: hepatocellular adenoma + hepatocellular carcinoma + neoplastic nodule, dosed 103 weeks, study length 105 weeks): 1510 mg/kg/day | TD50 (rat, strain Fischer 344, males, by gavage, site: any site (literature study), lesion: several types, types named in the paper, dosed 103 weeks, study length 104 weeks): 40.5 mg/kg/day | TD50 (rat, strain Fischer 344, males, by gavage, site: testis, lesion: interstitial-cell tumor, dosed 103 weeks, study length 104 weeks): 45.1 mg/kg/day (inactive)

O=C1NCCN1/N=C/c1ccc([N+](=O)[O-])o1
TD50 (rat, strain Sprague-Dawley, females, in feed, site: all sites, lesion: lymphoblastic lymphoma, dosed 46 weeks, study length 66 weeks): 82 mg/kg/day | TD50 (rat, strain Sprague-Dawley, females, in feed, site: mammary gland, lesion: adenocarcinoma, dosed 46 weeks, study length 66 weeks): 5.26 mg/kg/day

CCCCCCN(N=O)C(N)=O
TD50 (rat, strain Fischer 344, females, by gavage, site: forestomach, lesion: one or several types, types not named, dosed 50 weeks, study length 104 weeks): 0.848 mg/kg/day | TD50 (rat, strain Fischer 344, females, by gavage, site: lung, lesion: several types, types named in the paper, dosed 50 weeks, study length 104 weeks): 2.06 mg/kg/day | TD50 (rat, strain Fischer 344, females, by gavage, site: mammary gland, lesion: adenocarcinoma, dosed 50 weeks, study length 104 weeks): 1.73 mg/kg/day | TD50 (rat, strain Fischer 344, females, by gavage, site: uterus, lesion: several types, types named in the paper, dosed 50 weeks, study length 104 weeks): 0.579 mg/kg/day | TD50 (rat, strain Fischer 344, males, by gavage, site: all sites, lesion: mesothelioma, dosed 50 weeks, study length 104 weeks): 0.745 mg/kg/day | TD50 (rat, strain Fischer 344, males, by gavage, site: colon, lesion: one or several types, types not named, dosed 50 weeks, study length 104 weeks): 2.27 mg/kg/day | carcinogen call (rat, strain Fischer 344, males, by gavage, site: forestomach, lesion: one or several types, types not named, dosed 50 weeks, study length 104 weeks): positive | carcinogen call (rat, strain Fischer 344, males, by gavage, site: lung, lesion: several types, types named in the paper, dosed 50 weeks, study length 104 weeks): positive

OB(O)O
carcinogen call (mouse, strain B6C3F1, females, in feed, site: any site (literature study), lesion: several types, types named in the paper, dosed 103 weeks, study length 105 weeks): negative (inactive) | TD50 (mouse, strain B6C3F1, females, in feed, site: liver, lesion: hepatocellular adenoma + hepatocellular carcinoma + neoplastic nodule, dosed 103 weeks, study length 105 weeks): 31000 mg/kg/day | TD50 (mouse, strain B6C3F1, females, in feed, site: lung, lesion: alveolar/bronchiolar adenoma + alveolar/bronchiolar carcinoma, dosed 103 weeks, study length 105 weeks): 4190 mg/kg/day | TD50 (mouse, strain B6C3F1, males, in feed, site: any site (literature study), lesion: several types, types named in the paper, dosed 103 weeks, study length 105 weeks): 500 mg/kg/day | TD50 (mouse, strain B6C3F1, males, in feed, site: liver, lesion: hepatocellular adenoma + hepatocellular carcinoma + neoplastic nodule, dosed 103 weeks, study length 105 weeks): 638 mg/kg/day | TD50 (mouse, strain B6C3F1, males, in feed, site: liver, lesion: hepatocellular adenoma + hepatocellular carcinoma, dosed 103 weeks, study length 105 weeks): 638 mg/kg/day (inactive) | TD50 (mouse, strain B6C3F1, males, in feed, site: liver, lesion: hepatocellular carcinoma, dosed 103 weeks, study length 105 weeks): 1120 mg/kg/day | TD50 (mouse, strain B6C3F1, males, in feed, site: lung, lesion: alveolar/bronchiolar adenoma + alveolar/bronchiolar carcinoma, dosed 103 weeks, study length 105 weeks): 38600 mg/kg/day | TD50 (mouse, strain B6C3F1, males, in feed, site: subcutaneous tissue, lesion: fibrosarcoma + fibroma + neurofibrosarcoma + sarcoma, NOS, dosed 103 weeks, study length 105 weeks): 706 mg/kg/day | TD50 (mouse, strain B6C3F1, males, in feed, site: subcutaneous tissue, lesion: fibrosarcoma + neurofibrosarcoma + sarcoma, NOS, dosed 103 weeks, study length 105 weeks): 1070 mg/kg/day
